Measured values: paper PMC7876005 (Communications Biology, 2021)
Where a SMILES comes first, the peptide text is derived from it.

Columns and labels:
[1] = target: T1, Pgk1 (Saccharomyces cerevisiae, UniProt P00560); assay: microscale thermophoresis
T1 sequence (P00560 2-416): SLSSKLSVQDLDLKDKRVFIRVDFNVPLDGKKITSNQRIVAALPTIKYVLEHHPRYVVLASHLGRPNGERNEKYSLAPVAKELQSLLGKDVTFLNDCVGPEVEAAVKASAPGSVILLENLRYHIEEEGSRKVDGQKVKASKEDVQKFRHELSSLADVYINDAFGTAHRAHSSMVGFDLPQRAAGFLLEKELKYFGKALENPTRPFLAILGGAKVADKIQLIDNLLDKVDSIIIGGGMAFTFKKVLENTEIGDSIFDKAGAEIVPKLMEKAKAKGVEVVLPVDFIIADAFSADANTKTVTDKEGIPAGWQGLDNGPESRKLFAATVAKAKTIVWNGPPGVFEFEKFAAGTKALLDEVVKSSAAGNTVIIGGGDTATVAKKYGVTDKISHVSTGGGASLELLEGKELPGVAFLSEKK

[2] = target: T2, Pnp1 (Saccharomyces cerevisiae, UniProt Q05788); assay: LC-MS assay of inosine conversion to hypoxanthine; format: biochemical
T2 construct: recombinant, overexpressed in yeast ORF collection strain (Dharmacon), purified; monomeric mass 33 kDa
T2 sequence (Q05788 2-311): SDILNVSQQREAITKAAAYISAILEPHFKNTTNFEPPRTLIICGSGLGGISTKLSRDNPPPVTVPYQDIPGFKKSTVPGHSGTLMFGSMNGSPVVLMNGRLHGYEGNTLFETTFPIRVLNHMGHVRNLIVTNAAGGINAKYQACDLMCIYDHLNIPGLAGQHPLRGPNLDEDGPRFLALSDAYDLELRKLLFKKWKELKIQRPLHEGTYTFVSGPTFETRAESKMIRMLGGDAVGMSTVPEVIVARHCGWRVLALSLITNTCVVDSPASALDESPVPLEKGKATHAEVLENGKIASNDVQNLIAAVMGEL

SMILES: CC(C)C[C@H](NC(=O)[C@@H](N)CO)C(=O)O [Ser-Leu] (H-Ser-Leu-OH)
- Kd [1]: 416 µM

SMILES: Nc1ncnc2c1ncn2[C@@H]1O[C@H](COP(=O)(O)OP(=O)(O)OP(=O)(O)O)[C@@H](O)[C@H]1O [ATP]
- Kd [1]: 122 µM

SMILES: O=c1[nH]c(=O)c2[nH]cnc2[nH]1 [xanthine]
- inhibition at 100 µM [2]: < 32%
